From patent US10285943B2, “Aptamer bioconjugate drug delivery device” (GreenMark Biomedical Inc., priority 2010, dated 2019)

Tested on: D 245 glioblastoma multiform human xenograph
Test: In vivo studies of human xenographs implanted in athymic mice
Settings: Free Dox control
Description: Athymic mice were chosen for these studies because normal mice are capable of immunologically rejecting implanted foreign xenographs, specifically human tumors. The animals (both control and treated) were monitored for tumor regression and survival.
The procedure consisted of inoculation of a tumor brei into a subcutaneous site in athymic mice. The subcutaneous tumors were grown to approximately 200 cubic millimeters in size (6-8 mm in diameter). Subsequently, either the free drug or the drug loaded nanoparticles were injected at the tumor site or i.p. (intra peritoneal). […] The animals were treated in groups of 8 to 10 individuals.
Dispersions were 100 mg nanospheres/5 mL saline (1×0.5% Dox-nano), 200 mg nanospheres/5 mL saline (2×0.5% Dox-nano) or 400 mg nanospheres/5 mL saline (4×0.5% Dox-nano).
Injections were each 0.25 mL/20 gram mouse (all single injections).
T-C is defined as: Average of (days lived by drug-treated animal minus days lived by control animals); i.e., increased life span in days.
The Control was provided as follows: Varied—Untreated mice injected with saline; Untreated mice; Mice treated with drug-free nanospheres (100 mgs/5 mL saline).
P value: Test run for significance. P values are calculated using non-parametric statistical method by Hollander and Wolfe.
Regressions: Indicate that tumors drop below previous measurement and stay below for 2 consecutive measurements.

## (7S,9S)-7-[(2R,4S,5S,6S)-4-amino-5-hydroxy-6-methyloxan-2-yl]oxy-6,9,11-trihydroxy-9-(2-hydroxyethyl)-4-methoxy-8,10-dihydro-7H-tetracene-5,12-dione [Free Dox]
5 mg/kg, animals with regression/group
  Regressions: 0/10
5 mg/kg, deaths/group
  Toxic deaths: 0/10
Drug dose 5 mg/kg, injected at the tumor site or i.p.
  T-C (increased life span in days): 1.53 days
